The values below come from a melting point compilation (Tetko et al.; mined from patent text by program, amines drawn as free bases though some values may be those of a salt).

Each structure is given as a SMILES string.

In turn, `CS(=O)(=O)c1ccc(Oc2ccc(OC(F)(F)C(Cl)Cl)cc2)cc1` showed a melting point of 67 to 70 °C. As for `COc1c(Oc2ccccc2C)cccc1C(N)C(=O)O` (centres undefined), the figure is 169 to 170 °C; as for `CCOc1ccc(-c2ccc(C3COC(c4c(F)cccc4F)=N3)cc2)cn1` (centres undefined), 119 °C. As for `CC(C)[C@@H]1CC[C@@H](C)C[C@H]1OC(=O)N1C(=O)O[C@@H](C(F)(F)F)[C@@H]1C(C)C`, the figure is 80 to 82 °C. The figure for `COc1cc2c(cc1OCc1ccccc1)CCCN(Cc1cc(OC)c(OC)c(OC)c1)C2=O` is 134 to 135 °C; for `COC(CN(C)CC1CSC2=C(O1)c1ccccc1C(=O)C2=O)OC` (centres undefined) it is 80 to 82 °C; for `C=CC(=O)Nc1ccc2ncnc(Nc3cccc(Br)c3)c2c1` it is 258 to 261 °C.

In turn, `CC1(C)CS(=O)(=O)CC(C)(C)[NH+]1[O-]` yielded a melting point of 163 °C. The figure for `Cn1c(C(F)(F)F)cc(=O)n(-c2ccc3snc(C=C(Br)Br)c3c2)c1=O` is 260 to 262 °C; for `CCCc1ccccc1OCC(O)COc1ccc2oc(C(=O)O)cc(=O)c2c1` (centres undefined) it is 164 to 166 °C; for `NC(=O)C1CCCc2c(C(=O)c3ccccc3)cccc21` (centres undefined) it is 146 to 148 °C. As for `O=C(NCc1nc2cnc3cc(Br)ccc3c2n1CC1CCOCC1)C1CC1`, the figure is 140 °C.

Regarding `[N-]=[N+]=Nc1ccc(C(=O)OCCOC(=O)CC[C@@H](C(=O)O)n2c3ccccc3c3ccccc32)cc1`, the melting point amounted to 70 °C. As for `COc1cc2c(cc1OCc1ccccc1)CCN(Cc1cc(OC)c(OC)c(OC)c1)C2=O`, the figure is 136 to 137 °C.

Consider `O=C(NC(=O)c1cccs1)NC1CCN(Cc2ccc3ccccc3c2)CC1`, for which the melting point fell in the range of 217 to 219 °C. The figure for `Cc1c(C)c2c(c(C)c1OCc1ccc(S(C)=O)cc1)C(c1ccc(C(C)C)cc1)C(C)(C)O2` (centres undefined) is 132 to 134 °C; for `CC(C)(c1ccncn1)C(O)(Cn1cncn1)c1ccc(F)cc1F` (centres undefined) it is 126 to 127 °C; for `O=C(O)c1cc(S(=O)(=O)n2ccc3ccccc32)ccc1Br` it is 189 to 191 °C. The figure for `CC(=O)Nc1ccc(Sc2cccn3nc(Cl)nc23)cc1` is 148 to 150 °C; for `O=C1C=C(C(F)F)C(=O)c2ccccc21` it is 74 °C. The figure for `C=CCCCn1c(=O)sc2c(=O)[nH]c(N)nc21` is 240 to 243 °C; for `Oc1ccc(Cl)cc1CN1CCCCC1` it is 53 to 56 °C; for `CCNC(=O)c1c(C2CC2)nc(CC)n1Cc1ccc2oc(-c3ccccc3NS(=O)(=O)C(F)(F)F)cc2c1` it is 165 to 172 °C. The compound `CCCCc1nc(Cl)c(C=CC(=O)OCC)n1Cc1ccc(NC(=O)c2ccccc2C(=O)O)cc1` showed a melting point of 180 to 181 °C. The figure for `COc1cccc(C(C#N)=NOS(C)(=O)=O)c1` is 105 to 107 °C.

Consider `CCCCCCCCCCCCCCCCCCN1C(=O)CC(c2cc(C(C)(C)C)c(O)c(C(C)(C)C)c2)C1=O` (centres undefined), for which the melting point lay within 70 to 73 °C. As for `CC(=O)CCN1CCC(=C2c3ccccc3CCc3ccccc32)CC1`, the figure is 113 to 114 °C.

Take `CCCCCCCCCCCCCCCCCCOc1cc(NC(=O)OCc2ccccc2)cc(OCCCCC(=O)OC)c1`: the melting point was 59 to 62 °C. `CCc1c(C(=O)N2CCN(CCCCc3c[nH]c4ccc(F)cc34)CC2)nc(-c2ccccc2Cl)n1-c1ccc(Cl)cc1` showed a melting point of 91 to 92 °C. The figure for `COc1c(OC)c(OC)c2c(=O)cc(-c3ccc(OCc4ccccc4)c(OCc4ccccc4)c3)oc2c1OC` is 157 to 158 °C; for `OCCCCC(F)(F)C(F)(F)CCO` it is 52 to 55 °C; for `CCCCC1c2ccccc2-c2ccccc2N1S(=O)(=O)c1ccc(OC)cc1` (centres undefined) it is 127 to 129 °C. In turn, `O=Cc1csc(N2CCSCC2)n1` gave a melting point of 69 to 71 °C. As for `CCCC[C@H]1C(=O)CC[C@@]2(C)CC[C@@H]3C[C@]12OC3(C)C`, the figure is 64 to 66 °C; as for `CC(Cn1ncnn1)n1nnc2cc3c(=O)n(CCF)nnc3cc2c1=O` (centres undefined), 196 to 198 °C.

In turn, `CC(C)(CCl)c1cc(Cl)nnc1Br` yielded a melting point of 79 to 81 °C.

`O=C1NS(=O)(=O)c2cccc(Cl)c21` registered a melting point of 210 to 212 °C. As for `O=C/C=C/c1cc2ccccc2o1`, the figure is 67 °C. The figure for `C=C(C)C(=O)OCCC#Cc1ccc2c(ccc3cc(OC(=O)C(=C)C)ccc32)c1` is 91 °C. As for `Nc1nc2c(ncn2[C@@H]2CO[C@H](CO)[C@@H](O)C2)c(=O)[nH]1`, the figure is over 300 °C; as for `CCN(CC)CC(O)c1cccc2c(C)c(C)oc12` (centres undefined), 138 to 142 °C; as for `C=CCS(=O)(=O)CC=C`, 63 to 65 °C.

`COc1cc2[nH]cc(C3CN4CCC3CC4)c2cc1OC` (centres undefined) yielded a melting point of 243 to 245 °C. In turn, `NS(=O)(=O)c1ccc(-c2cc(C(=O)CCCO)nn2C2CCCCC2)cc1` had a melting point of 152 to 154 °C. The figure for `Cc1ccccc1COc1cccnc1NC(=N)Nc1ccc(Cl)cc1` is 158 to 159 °C. The figure for `COCn1cc(-c2coc3ccc(-c4nnc(C)o4)cc23)cn1` is 128 to 129 °C; for `CC1=CC(=O)N(c2cc(-n3c(=O)n(C)c(=O)n(CC(=O)OC(C)C)c3=O)c(Cl)cc2F)C1=O` it is 110 to 120 °C. The figure for `COc1cc2ccccc2cc1-c1nc(N)nc(N)n1` is 243 to 244 °C.

Regarding `C(=C\c1cc(/C=C/c2ccc3cc[nH]c3c2)n[nH]1)/c1ccc(Oc2ccccc2)cc1`, the melting point is 175 to 182 °C.

For `O=C1CCCCC(CO)N1` (centres undefined), the melting point amounted to 100 °C.

`CCN(CC)C(=O)ON=C(C(=O)N(C)C)C(C)=NOC` gave a melting point of 59 to 61 °C. Turning to `O=S1(=O)N=C(NC2CCCCC2)Nc2cc(Cl)sc21`, the melting point fell in the range of 282 to 284 °C. The figure for `CCOc1nn(Cc2ccc(OCc3nc(-c4ccco4)oc3C)cc2)cc1CCC(=O)O` is 129 to 130 °C; for `COc1cc(COc2nn(Cc3ccccc3)cc2C(=O)O)ccc1OCc1nc(-c2ccccc2)oc1C` it is 162 to 163 °C. In turn, `O=C1c2ccccc2-c2c1c1ccccc1c(=O)n2CCCO` displayed a melting point of 173 to 175 °C. The figure for `CCOC(=O)c1c2ccc(Cl)cc2c(-c2ccccc2)n1CCO` is 114 to 116 °C; for `Cc1c(Br)c2c(c(C)c1NC(=O)OC(C)(C)C)C(O)C(C)(C)O2` (centres undefined) it is 187 to 188 °C. With `CCOC(=O)C(=O)N(c1ccccc1)c1cc(OC)c([N+](=O)[O-])cc1OC`, the melting point lay within 146 to 147 °C.

Consider `Cn1cc(C(=O)N=C=O)c([N+](=O)[O-])n1`, for which the melting point is 55 to 59 °C. The figure for `COCCNC(=O)c1cccc(-c2cccc3cc(C(C)(O)c4cccc(C(F)(F)F)c4)sc23)c1` (centres undefined) is 134 to 138 °C; for `CN(C)Cc1nc2cccnc2[nH]1` it is 123 to 125 °C; for `Cn1cc(S(C)=O)c(=O)c2scc(-c3ccccc3)c21` (centres undefined) it is 206 to 209 °C. The figure for `Cc1cncn1CC(O)c1ccccc1` (centres undefined) is 193 °C; for `COc1ccc(N2CCN(c3c(C)c(C)c4c(c3-c3ccc(N(C)C)cc3)CC(C)(C)O4)CC2)cc1` it is 177 to 179 °C.
